The text below walks through data of patent US9873709B2 (priority 2013, dated 2018).

Structures are written as SMILES. Structures can show the parent of a compound that is named as a salt.

This assay concerns JAK1-dependent STAT6 phosphorylation downstream of IL-13 stimulation in TF-1 human erythroleukemia cells. The experiment in a line: cells. The settings on record: TF-1, read-out: IL-13-pSTAT6 IC50.
Regarding `CCOC(=O)N1CC=C(c2cccn3nc(Nc4ccc(C(=O)N5CCC6(CCNC6)C5)cc4)nc23)CC1` (stereo not shown) [Example 2-78, ethyl 4-[2-[4-(2,7-diazaspiro[4.4]nonane-2-carbonyl)anilino]-[1,2,4]triazolo[1,5-a]pyridin-8-yl]-3,6-dihydro-2H-pyridine-1-carboxylate], the IC50 was determined as 360 nM. To `NCC1CCCN1C(=O)c1ccc(Nc2nc3c(C4=CCN(C(=O)CCC(F)(F)F)CC4)cccn3n2)cc1` (stereo not shown) [Example 2-80, 1-[4-[2-[4-[2-(aminomethyl)pyrrolidine-1-carbonyl]anilino]-[1,2,4]triazolo[1,5-a]pyridin-8-yl]-3,6-dihydro-2H-pyridin-1-yl]-4,4,4-trifluoro-butan-1-one] belongs 79.4 nM. To `O=C(CCC(F)(F)F)N1CC=C(c2cccn3nc(Nc4ccc(C(=O)N5CC6(CCNCC6)C5)cc4)nc23)CC1` [Example 2-81, 1-[4-[2-[4-(2,7-diazaspiro[3.5]nonane-2-carbonyl)anilino]-[1,2,4]triazolo[1,5-a]pyridin-8-yl]-3,6-dihydro-2H-pyridin-1-yl]-4,4,4-trifluoro-butan-1-one] belongs 60 nM; to `O=C(CCC(F)(F)F)N1CC=C(c2cccn3nc(Nc4ccc(C(=O)N5CCOC6(CCCNC6)C5)cc4)nc23)CC1` (stereo not shown) [Example 2-82, 4,4,4-trifluoro-1-[4-[2-[4-(1-oxa-4,8-diazaspiro[5.5]undecane-4-carbonyl)anilino]-[1,2,4]triazolo[1,5-a]pyridin-8-yl]-3,6-dihydro-2H-pyridin-1-yl]butan-1-one], 224 nM. In the case of `O=C(NCC1CCC2(CCNCC2)O1)c1ccc(Nc2nc3c(C4=CCN(C(=O)CCC(F)(F)F)CC4)cccn3n2)cc1` (stereo not shown) [Example 2-83, N-(1-oxa-8-azaspiro[4.5]decan-2-ylmethyl)-4-[[8-[1-(4,4,4-trifluorobutanoyl)-3,6-dihydro-2H-pyridin-4-yl]-[1,2,4]triazolo[1,5-a]pyridin-2-yl]amino]benzamide], the IC50 amounted to 197 nM.

Consider `O=C(NCC1CCNCC1)c1ccc(Nc2nc3c(C4=CCN(C(=O)CCC(F)(F)F)CC4)cccn3n2)cc1` [Example 2-84, N-(4-piperidylmethyl)-4-[[8-[1-(4,4,4-trifluorobutanoyl)-3,6-dihydro-2H-pyridin-4-yl]-[1,2,4]triazolo[1,5-a]pyridin-2-yl]amino]benzamide], for which the IC50 is 71.4 nM.

Take `CNC1CCN(C(=O)c2ccc(Nc3nc4c(C5=CCN(C(=O)CCC(F)(F)F)CC5)cccn4n3)cc2)C1` (stereo not shown) [Example 2-85, 4,4,4-trifluoro-1-[4-[2-[4-[3-(methylamino)pyrrolidine-1-carbonyl]anilino]-[1,2,4]triazolo[1,5-a]pyridin-8-yl]-3,6-dihydro-2H-pyridin-1-yl]butan-1-one]: the 50% inhibitory concentration (IC50) amounted to 62.6 nM. On to `O=C(NCCC1CCNCC1)c1ccc(Nc2nc3c(C4=CCN(C(=O)CCC(F)(F)F)CC4)cccn3n2)cc1` [Example 2-86, N-[2-(4-piperidyl)ethyl]-4-[[8-[1-(4,4,4-trifluorobutanoyl)-3,6-dihydro-2H-pyridin-4-yl]-[1,2,4]triazolo[1,5-a]pyridin-2-yl]amino]benzamide], for which the half-inhibitory concentration (IC50) was determined as 216 nM.

In the case of `CN1CC2CN(C(=O)c3ccc(Nc4nc5c(C6=CCN(C(=O)CCC(F)(F)F)CC6)cccn5n4)cc3)CC2C1` (stereo not shown) [Example 2-87, 4,4,4-trifluoro-1-[4-[2-[4-(2-methyl-1,3,3a,4,6,6a-hexahydropyrrolo[3,4-c]pyrrole-5-carbonyl)anilino]-[1,2,4]triazolo[1,5-a]pyridin-8-yl]-3,6-dihydro-2H-pyridin-1-yl]butan-1-one], the IC50 amounted to 8.6 nM. To `Cc1cc(N(C)C)cc(C2CCCN2C(=O)c2ccc(Nc3nc4c(C5=CCN(C(=O)CCC(F)(F)F)CC5)cccn4n3)cc2)n1` (stereo not shown) [Example 2-92, 1-[4-[2-[4-[2-[4-(dimethylamino)-6-methyl-2-pyridyl]pyrrolidine-1-carbonyl]anilino]-[1,2,4]triazolo[1,5-a]pyridin-8-yl]-3,6-dihydro-2H-pyridin-1-yl]-4,4,4-trifluoro-butan-1-one] belongs 20.9 nM; to `CN1CCCC2(CCCN(C(=O)c3ccc(Nc4nc5c(C6=CCN(C(=O)CCC(F)(F)F)CC6)cccn5n4)cc3)C2)C1` (stereo not shown) [Example 2-93, 4,4,4-trifluoro-1-[4-[2-[4-(8-methyl-2,8-diazaspiro[5.5]undecane-2-carbonyl)anilino]-[1,2,4]triazolo[1,5-a]pyridin-8-yl]-3,6-dihydro-2H-pyridin-1-yl]butan-1-one], 4.7 nM. To `CCOC(=O)N1CC=C(c2cccn3nc(Nc4ccc(C(=O)OC5CCN(C)CC5)cc4)nc23)CC1` [Example 2-94, ethyl 4-[2-[4-[(1-methyl-4-piperidyl)oxycarbonyl]anilino]-[1,2,4]triazolo[1,5-a]pyridin-8-yl]-3,6-dihydro-2H-pyridine-1-carboxylate] belongs 23.6 nM; to `O=C(CCC(F)(F)F)N1CC=C(c2cccn3nc(Nc4ccc(C(=O)N5CCN(Cc6ccccn6)CC5)cc4)nc23)CC1` [Example 2-95, 4,4,4-trifluoro-1-[4-[2-[4-[4-(2-pyridylmethyl)piperazine-1-carbonyl]anilino]-[1,2,4]triazolo[1,5-a]pyridin-8-yl]-3,6-dihydro-2H-pyridin-1-yl]butan-1-one], 4.3 nM. To `CN(CCc1ccncc1)C(=O)c1ccc(Nc2nc3c(C4=CCN(C(=O)CCC(F)(F)F)CC4)cccn3n2)cc1` [Example 2-96, N-methyl-N-[2-(4-pyridyl)ethyl]-4-[[8-[1-(4,4,4-trifluorobutanoyl)-3,6-dihydro-2H-pyridin-4-yl]-[1,2,4]triazolo[1,5-a]pyridin-2-yl]amino]benzamide] belongs 5.2 nM; to `CN(C)C1CCN(C(=O)c2ccc(Nc3nc4c(C5=CCN(C(=O)CCC(F)(F)F)CC5)cccn4n3)cc2)CC1` [Example 2-97, 1-[4-[2-[4-[4-(dimethylamino)piperidine-1-carbonyl]anilino]-[1,2,4]triazolo[1,5-a]pyridin-8-yl]-3,6-dihydro-2H-pyridin-1-yl]-4,4,4-trifluoro-butan-1-one], 13.7 nM; to `CN1CCN(C(=O)c2ccc(Nc3nc4c(C5=CCN(C(=O)CCC(F)(F)F)CC5)cccn4n3)cc2)CC1` [Example 2-98, 4,4,4-trifluoro-1-[4-[2-[4-(4-methylpiperazine-1-carbonyl)anilino]-[1,2,4]triazolo[1,5-a]pyridin-8-yl]-3,6-dihydro-2H-pyridin-1-yl]butan-1-one], 11.5 nM. Turning to `CN1CCN(CCCNC(=O)c2ccc(Nc3nc4c(C5=CCN(C(=O)CCC(F)(F)F)CC5)cccn4n3)cc2)CC1` [Example 2-99, N-[3-(4-methylpiperazin-1-yl)propyl]-4-[[8-[1-(4,4,4-trifluorobutanoyl)-3,6-dihydro-2H-pyridin-4-yl]-[1,2,4]triazolo[1,5-a]pyridin-2-yl]amino]benzamide], the IC50 is 29.4 nM. To `O=C(NCCN1CCC(O)CC1)c1ccc(Nc2nc3c(C4=CCN(C(=O)CCC(F)(F)F)CC4)cccn3n2)cc1` [Example 2-100, N-[2-(4-hydroxy-1-piperidyl)ethyl]-4-[[8-[1-(4,4,4-trifluorobutanoyl)-3,6-dihydro-2H-pyridin-4-yl]-[1,2,4]triazolo[1,5-a]pyridin-2-yl]amino]benzamide] belongs 84.7 nM.

Consider `CN(C)CCN1CCN(C(=O)c2ccc(Nc3nc4c(C5=CCN(C(=O)CCC(F)(F)F)CC5)cccn4n3)cc2)CC1` [Example 2-102, 1-[4-[2-[4-[4-[2-(dimethylamino)ethyl]piperazine-1-carbonyl]anilino]-[1,2,4]triazolo[1,5-a]pyridin-8-yl]-3,6-dihydro-2H-pyridin-1-yl]-4,4,4-trifluoro-butan-1-one], for which the IC50 turned out to be 33.7 nM. For the compound `O=C(CCC(F)(F)F)N1CC=C(c2cccn3nc(Nc4ccc(C(=O)N5CCCC(c6cc7cccnc7[nH]6)C5)cc4)nc23)CC1` (stereo not shown) [Example 2-103, 4,4,4-trifluoro-1-[4-[2-[4-[3-(1H-pyrrolo[2,3-b]pyridin-2-yl)piperidine-1-carbonyl]anilino]-[1,2,4]triazolo[1,5-a]pyridin-8-yl]-3,6-dihydro-2H-pyridin-1-yl]butan-1-one], the IC50 is 145 nM. To `CN(Cc1ccccc1-c1cccnc1)C(=O)c1ccc(Nc2nc3c(C4=CCN(C(=O)CCC(F)(F)F)CC4)cccn3n2)cc1` [Example 2-104, N-methyl-N-[[2-(3-pyridyl)phenyl]methyl]-4-[[8-[1-(4,4,4-trifluorobutanoyl)-3,6-dihydro-2H-pyridin-4-yl]-[1,2,4]triazolo[1,5-a]pyridin-2-yl]amino]benzamide] belongs 59.7 nM; to `CN1CCC(N(C)C(=O)c2ccc(Nc3nc4c(C5=CCN(C(=O)C6CCOCC6)CC5)cccn4n3)cc2)CC1` [Example 2-105, N-methyl-N-(1-methyl-4-piperidyl)-4-[[8-[1-(tetrahydropyran-4-carbonyl)-3,6-dihydro-2H-pyridin-4-yl]-[1,2,4]triazolo[1,5-a]pyridin-2-yl]amino]benzamide], 373 nM; to `CNC(=O)N1CC=C(c2cccn3nc(Nc4ccc(C(=O)N(C)C5CCN(C)CC5)cc4)nc23)CC1` [Example 2-106, N-methyl-4-[2-[4-[methyl-(1-methyl-4-piperidyl)carbamoyl]anilino]-[1,2,4]triazolo[1,5-a]pyridin-8-yl]-3,6-dihydro-2H-pyridine-1-carboxamide; hydrochloride], 8570 nM. On to `CN1CCC(N(C)C(=O)c2ccc(Nc3nc4c(C5=CCN(C(=O)C6CCOC6)CC5)cccn4n3)cc2)CC1` (stereo not shown) [Example 2-107, N-methyl-N-(1-methyl-4-piperidyl)-4-[[8-[1-(tetrahydrofuran-3-carbonyl)-3,6-dihydro-2H-pyridin-4-yl]-[1,2,4]triazolo[1,5-a]pyridin-2-yl]amino]benzamide; hydrochloride], for which the concentration for half-maximal inhibition (IC50) stood at 422 nM. To `CN1CCC(N(C)C(=O)c2ccc(Nc3nc4c(C5=CCN(C(=O)OCC(F)(F)F)CC5)cccn4n3)cc2)CC1` [Example 2-108, 2,2,2-trifluoroethyl 4-[2-[4-[methyl-(1-methyl-4-piperidyl)carbamoyl]anilino]-[1,2,4]triazolo[1,5-a]pyridin-8-yl]-3,6-dihydro-2H-pyridine-1-carboxylate] belongs 9.8 nM.
